Laboratory results reported in patent publication US5349070A, “Salicylic acid-maltol conjugates” (priority 1993, dated 1994).

Key:
[1] = tested on: Carrageenin-induced edema; assay: Antiinflammatory activity by Carrageenin-induced edema test; type: in vivo, rat (male Sprague Dawley); conditions: for % Increment of Edema: mean ± S.E.
Procedure: Animal: Male Sprague Dawley rats weighing approx. 170 g (5 rats as a group). […]
(§1) Medication: Oral administration.
The inhibitions of Carrageenin-induced edema by compound A and aspirin was measured according to Winster et al. (Winter, C. A., Risley, E. A. and Nuss, G. W. (1963), J: Pharmaco. Exptl. Therap., 141, 369). Samples were administered orally at 6 hrs and 30 min before Carrageenin injection. Edema was induced with subcutaneous injection of 0.05 ml of 1% Carrageenin in saline solution in a hind paw of rat. Then, the volume of edema was measured at time intervals.

platelets = assay: Antithrombotic activity (thrombin-induced platelet aggregation); type: cell-based, rat (male Sprague Dawley); conditions: 1×10^-3 M
Procedure: Animal: Male Sprague Dawley rate weighing 180-250 g.
Sample: Compound A (1×10^-3 M) in 5% DMF solution.
Rats were anaesthetized with ether and 9 volumes of blood were collected by heart puncture with 1 volume of 3.12% sodium citrate. Combined blood samples were centrifuged at 1,200 rpm for 20 min at 4° C. to obtain platelet-rich plasma. Following centrifugation at 3,000 rpm for 10 min at 4° C., the resulting precipitates (platelets) were resuspended in 0.01M phosphate-buffered saline (pH 7.4). To 1 ml of this solution was added 0.1 ml of the sample solution. After 30 min incubation at 37° C., 10 units of thrombin was added and the reaction mixture was incubated for 1 hr.

BSA = assay: Protein stabilizing activity (heat denaturation of BSA); type: biochemical; conditions: 1×10^-3 M in 5% DMF; data not shown
Procedure: Sample: Compound A (1×10^-3 M in 5% DMF solution
The protein stabilizng activity of the sample was analyzed as described by Mizushima (Mizushima, Y. (1965), Lancet, 1, 169). Briefly, 2 ml of 0.75% BSA in 0.1M phosphate-buffered saline (pH 5.3) was mixed with 1 ml of appropriately diluted test sample solution. After standing at room temperature for 15 min, the reaction mixture was incubated at 66.5°C. and 0° C. for 3 min and 15 min, respectively. The degree of heat denaturation of BSA was estimated by the turbidity of colloidal precipitate, whose absorbance at 570 nm was measured.

[2] = tested on: Malondialdehyde (MDA) Generation in Mouse Liver Homogenate; assay: Inhibition of malondialdehyde (MDA) generation (antioxidant activity), in vitro; type: biochemical, mouse (male ICR)
Procedure: Animal: male ICR mouse weighing 20-25 g
1. Maltol (10% DMF saline)
2. Aspirin (10% DMF saline).
TBA reagents: Thiobarbituric acid (0.3%) and SDS (0.4%) were dissolved in 7.5% acetate buffer (pH 4.0)
Antioxidant activities were determined following the method of Okawa et al. (Biochemistry (Japan) 1977), 49(8), 829). Mouse livers were homogenized with ten volumes of saline. To 10 ml of homogenate was added 10 ml of the sample solution, and the mixture was incubated at 37° C. for 3 hrs. Then 3.6 ml of TBA reagents were added to the mixture and the resulting mixture was heated at 98° C. for 1 hr. After the temperature was reduced to 24° C., the reaction mixture was extracted with 2 ml of butanol and the butanol phase was separated by centrifugation. The absorbance at 532 nm of the butanol phase was measured.

Bleeding time = type: in vivo; conditions: for Bleeding Time: in s (unit assumed); for percent increment of bleeding time: P < 0.05
Procedure: To the experimental groups, equivalent doses of compound A and aspirin were administered separately for 10 days.

Acute toxicity test = type: in vivo; conditions: oral, mouse
Typhoid vaccine pyrogen = assay: Antipyretic activity (typhoid vaccine pyrogen, rectal temperature); type: in vivo, mouse (male ICR); conditions: oral, mouse, FIG. 3; compound A 160, 500 mg/kg, aspirin 100 mg/kg
Procedure: Animal: Male ICR mouse weighing 17-21 g (5 mice as a group).
Sample: Compound A (160 mg/kg, 500 mg/kg in 1% CMC).
Reference: Aspirin (100 mg/kg in 1% CMC).
Pyrogen: Typhoid vaccine (0.1 ml/mouse, i.p.).
Antipyretic activities were measured according to Winter et al. with some modifications (Winter, C. A. et al. (1963), J. Pharmacol Exptl. Therap., 141, […]). Rectal temperature was measured using digitalized thermometer inserted 3 cm deep at one hr intervals. Typhoid vaccine was injected to mouse i.p. at zero time. After 2 hrs, aspirin and sample (compound in Example 1) were orally given to mouse.

[3] = General activities and side effects stated in the description; conditions: concluding statement
[4] = Gastric ulceration experiment; type: in vivo, rat (male Sprague Dawley); conditions: for Ulcer Index: mean ± S.E.; for gastric ulceration: compound A versus aspirin at four times lower dose
Procedure: Animal: Male Sprague Dawley rats weighing 160-210 g (6 rats as a group).
Reference: Aspirin (200 mg/kg in 1% CMC).
as §1
Rats were deprived of food but allowed free access to water for 24 hrs (water was removed 2 hrs before experiments). Samples suspended in 1% CMC solution […]. The stomachs were then inflated by injecting 10 ml of 2% formalin through the esophageal orifice and immersed in 2% formalin for 10 min. Subsequently, the stomachs were incised along the greater curvature and the length of each leison in the glandular portion was measured. The sum of the lengths (mm) of all lesions for each rat was used as the ulcer index.

[5] = background statement; cited from earlier work
[6] = final concentration 1.3 × 10^-5 M
[7] = final concentration 2.5 × 10^-3 M
[8] = final concentration 2.5 × 10^-4 M
[9] = final concentration 6.3 × 10^-5 M

CCCCC1C(=O)N(c2ccccc2)N(c2ccccc2)C1=O [Phenylbutazone, reference compound]
% Increment of Edema ([1]; 100 mg/kg P.O., 0.5 hr): 11.8 ± 6.26% | % Increment of Edema ([1]; 100 mg/kg P.O., 1.5 hr): 20.9 ± 6.88% | % Increment of Edema ([1]; 100 mg/kg P.O., 2.5 hr): 21.9 ± 9.22% | % Increment of Edema ([1]; 100 mg/kg P.O., 3.5 hr): 36.2 ± 14.45%

CC(=O)Oc1ccccc1C(=O)Oc1c(C)occc1=O [Compound A, maltol-acetylsalicylate ester]
antithrombotic activity (platelets): showed antithrombotic activity | platelet aggregation (platelets; 10 units thrombin, naked eye, 1 hr): platelet aggregation was not observed | protein stabilizing activity (BSA): did not contain protein stabilizing activity | % Inhibition of Malondialdehyde (MDA) Generation [2, 6]: 4.3 ± 2.1% | % Inhibition of Malondialdehyde (MDA) Generation [2, 7]: 91.9 ± 4.1% | % Inhibition of Malondialdehyde (MDA) Generation [2, 8]: 58.9 ± 7.0% | % Inhibition of Malondialdehyde (MDA) Generation [2, 9]: 2.3 ± 1.1% | Bleeding Time (Bleeding time; 15 mg/kg P.O., day 2): 339.6 ± 53.9 | Bleeding Time (Bleeding time; 15 mg/kg P.O., day 4): 396.9 ± 56.0 | Bleeding Time (Bleeding time; 15 mg/kg P.O., day 6): 429.4 ± 50.6 | Bleeding Time (Bleeding time; 15 mg/kg P.O., day 8): 518.3 ± 102.8 | percent increment of bleeding time (Bleeding time; 15 mg/kg P.O., day 10): 50% | Bleeding Time (Bleeding time; 15 mg/kg P.O., day 10): 472.1 ± 57.4 | percent increment of bleeding time (Bleeding time; 45 mg/kg P.O., day 10): 48% | Bleeding Time (Bleeding time; 45 mg/kg P.O., day 10): 467.8 ± 55.9 | prolongation of the bleeding time (Bleeding time; administered for 10 days): 50% | LD50 (Acute toxicity test; in vivo): 2140 mg/kg | toxicity (Acute toxicity test): little toxicity | antipyretic potency compared to aspirin (Typhoid vaccine pyrogen): five times lower than that of aspirin | side effects [3]: little side effects | Ulcer Index ([4]; 100 mg/kg P.O.): 0 mm | Ulcer Index ([4]; 200 mg/kg P.O.): 0 mm | number of rats that exhibited gastric ulcer ([4]; 800 mg/kg P.O.): 1/6 | Ulcer Index ([4]; 800 mg/kg P.O.): 0.7 ± 0.61 mm | gastric ulcer ([4]; at 5 times higher dose than aspirin): did not cause gastric ulcer | gastric ulceration [4]: did not cause gastric ulceration | % Increment of Edema ([1]; 300 mg/kg P.O., 0.5 hr): 46.5 ± 13.98% | % Increment of Edema ([1]; 300 mg/kg P.O., 1.5 hr): 51.2 ± 9.47% | % Increment of Edema ([1]; 300 mg/kg P.O., 2.5 hr): 56.1 ± 11.50% | % Increment of Edema ([1]; 300 mg/kg P.O., 3.5 hr): 69.4 ± 13.89% | % Increment of Edema ([1]; 300 mg/kg P.O., 4.5 hr): 81.9 ± 9.96% | % Increment of Edema ([1]; 400 mg/kg P.O., 0.5 hr): 20.3 ± 6.85% | % Increment of Edema ([1]; 400 mg/kg P.O., 1.5 hr): 33.8 ± 3.19% | % Increment of Edema ([1]; 400 mg/kg P.O., 2.5 hr): 50.2 ± 6.43% | % Increment of Edema ([1]; 400 mg/kg P.O., 3.5 hr): 58.4 ± 6.09% | % Increment of Edema ([1]; 400 mg/kg P.O., 4.5 hr): 66.2 ± 8.52% | anti-inflammatory effect ([1]; doses of 300 and 450 mg/kg, oral): no anti-inflammatory effect

CC(=O)Oc1ccccc1C(=O)O [Aspirin, Acetylsalicylic acid, reference compound]
gastric ulceration induced by aspirin [5]: induces gastric ulceration | pharmacological activities of aspirin [5]: antipyretic, antianalgesic, antioxidant and antithromobotic activities | % Inhibition of Malondialdehyde (MDA) Generation [2, 7]: 8.4 ± 4.2% | % Inhibition of Malondialdehyde (MDA) Generation [2, 8]: 0.8 ± 0.4% | % Inhibition of Malondialdehyde (MDA) Generation [2, 9]: 4.6 ± 2.3% | Bleeding Time (Bleeding time; 15 mg/kg P.O., day 2): 353.5 ± 74.7 | Bleeding Time (Bleeding time; 15 mg/kg P.O., day 4): 372.7 ± 50.1 | Bleeding Time (Bleeding time; 15 mg/kg P.O., day 6): 516.6 ± 119.4 | Bleeding Time (Bleeding time; 15 mg/kg P.O., day 8): 493.6 ± 86.6 | Bleeding Time (Bleeding time; 15 mg/kg P.O., day 10): 441.9 ± 46.2 | number of rats that exhibited gastric ulcer ([4]; 200 mg/kg P.O.): 5/5 | Ulcer Index ([4]; 200 mg/kg P.O.): 29.3 ± 6.15 mm | gastric ulceration [4]: caused ulceration

Cc1occc(=O)c1O [Maltol, maltol]
% Inhibition of Malondialdehyde (MDA) Generation [2, 6]: 5.2 ± 2.6% | % Inhibition of Malondialdehyde (MDA) Generation [2, 7]: 99.4 ± 0.3% | % Inhibition of Malondialdehyde (MDA) Generation [2, 8]: 94.8 ± 2.6% | % Inhibition of Malondialdehyde (MDA) Generation [2, 9]: 13.4 ± 6.7%
